Measured values as given in publication PMC5862592, “CDK8/19 inhibition induces premature G1/S transition and ATR-dependent cell death in prostate cancer cells” (Oncotarget, 2018).
Read-outs that look alike come from different tables or passages of the source.

Legend:
Experiment in all cases: biochemical
Design in all cases: KINOMEscan active site-directed competition binding assay (DiscoveRx), 456 kinases, per cent of control at 300 nM
Conditions in all cases: read-out: Percent of Control (%)
[1] = target: LYN (Homo sapiens, UniProt P07948)
In short: (§1)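 At 300 nmol/L, compounds were assessed for kinase binding in an active site-directed competition format covering 456 kinases.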

[2] = target: TTK (Homo sapiens, UniProt P33981)
In short: as §1

[3] = target: GRK7 (Homo sapiens, UniProt Q8WTQ7)
In short: as §1

[4] = target: T1, p38-delta (Homo sapiens, UniProt O15264)
T1 construct: gene MAPK13
In short: as §1

[5] = target: RET(M918T) (Homo sapiens, UniProt P07949, M918T)
In short: as §1

[6] = target: CAMKK1 (Homo sapiens, UniProt Q8N5S9)
In short: as §1

[7] = target: CIT (Homo sapiens, UniProt O14578)
In short: as §1

[8] = target: BRAF (Homo sapiens, UniProt P15056)
In short: as §1

[9] = target: MARK4 (Homo sapiens, UniProt Q96L34)
In short: as §1

[10] = target: MAP4K5 (Homo sapiens, UniProt Q9Y4K4)
In short: as §1

[11] = target: DMPK (Homo sapiens, UniProt Q09013)
In short: as §1

[12] = target: ALK(L1196M) (Homo sapiens, UniProt Q9UM73, L1196M)
In short: as §1

[13] = target: PIK3CA(E545A) (Homo sapiens, UniProt P42336, E545A)
In short: as §1

[14] = target: LATS2 (Homo sapiens, UniProt Q9NRM7)
In short: as §1

[15] = target: EPHB2 (Homo sapiens, UniProt P29323)
In short: as §1

[16] = target: CDK5 (Homo sapiens, UniProt Q00535)
In short: as §1

[17] = target: MAP4K3 (Homo sapiens, UniProt Q8IVH8)
In short: as §1

[18] = target: T2, LZK (Homo sapiens, UniProt O43283)
T2 construct: gene MAP3K13
In short: as §1

[19] = target: AURKA (Homo sapiens, UniProt O14965)
In short: as §1

[20] = target: T3, BIKE (Homo sapiens, UniProt Q9NSY1)
T3 construct: gene BMP2K
In short: as §1

[21] = target: AKT2 (Homo sapiens, UniProt P31751)
In short: as §1

[22] = target: DYRK2 (Homo sapiens, UniProt Q92630)
In short: as §1

Sequence of EPHB2 (P29323 whole entry): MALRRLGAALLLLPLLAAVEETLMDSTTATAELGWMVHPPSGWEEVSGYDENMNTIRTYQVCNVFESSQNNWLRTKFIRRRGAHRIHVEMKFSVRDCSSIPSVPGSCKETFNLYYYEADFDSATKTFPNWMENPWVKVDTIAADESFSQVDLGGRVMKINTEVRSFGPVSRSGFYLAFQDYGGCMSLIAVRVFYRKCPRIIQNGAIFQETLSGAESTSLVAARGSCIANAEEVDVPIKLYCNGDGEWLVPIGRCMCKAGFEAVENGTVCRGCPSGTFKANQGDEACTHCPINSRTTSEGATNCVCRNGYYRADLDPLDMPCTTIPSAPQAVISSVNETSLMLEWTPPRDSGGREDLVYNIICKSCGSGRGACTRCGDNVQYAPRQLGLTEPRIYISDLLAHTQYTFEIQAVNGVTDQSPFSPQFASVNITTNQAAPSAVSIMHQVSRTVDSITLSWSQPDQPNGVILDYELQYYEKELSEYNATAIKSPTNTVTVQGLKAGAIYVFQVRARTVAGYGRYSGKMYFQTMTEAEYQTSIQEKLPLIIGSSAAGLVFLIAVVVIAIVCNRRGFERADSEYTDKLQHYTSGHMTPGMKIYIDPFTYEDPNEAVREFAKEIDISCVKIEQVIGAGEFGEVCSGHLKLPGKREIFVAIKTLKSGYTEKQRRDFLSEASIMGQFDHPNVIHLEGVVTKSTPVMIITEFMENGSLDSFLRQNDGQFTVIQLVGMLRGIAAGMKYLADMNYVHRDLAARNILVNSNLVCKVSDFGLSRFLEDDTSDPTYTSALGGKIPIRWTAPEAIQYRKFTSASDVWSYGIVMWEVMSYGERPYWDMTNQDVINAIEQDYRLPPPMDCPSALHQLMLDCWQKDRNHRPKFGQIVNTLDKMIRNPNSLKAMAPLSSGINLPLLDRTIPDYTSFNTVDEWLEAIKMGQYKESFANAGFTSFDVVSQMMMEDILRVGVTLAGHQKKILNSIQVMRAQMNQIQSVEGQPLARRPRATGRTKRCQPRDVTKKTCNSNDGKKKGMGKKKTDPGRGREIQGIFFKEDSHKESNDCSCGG
Sequence of MARK4 (Q96L34 whole entry): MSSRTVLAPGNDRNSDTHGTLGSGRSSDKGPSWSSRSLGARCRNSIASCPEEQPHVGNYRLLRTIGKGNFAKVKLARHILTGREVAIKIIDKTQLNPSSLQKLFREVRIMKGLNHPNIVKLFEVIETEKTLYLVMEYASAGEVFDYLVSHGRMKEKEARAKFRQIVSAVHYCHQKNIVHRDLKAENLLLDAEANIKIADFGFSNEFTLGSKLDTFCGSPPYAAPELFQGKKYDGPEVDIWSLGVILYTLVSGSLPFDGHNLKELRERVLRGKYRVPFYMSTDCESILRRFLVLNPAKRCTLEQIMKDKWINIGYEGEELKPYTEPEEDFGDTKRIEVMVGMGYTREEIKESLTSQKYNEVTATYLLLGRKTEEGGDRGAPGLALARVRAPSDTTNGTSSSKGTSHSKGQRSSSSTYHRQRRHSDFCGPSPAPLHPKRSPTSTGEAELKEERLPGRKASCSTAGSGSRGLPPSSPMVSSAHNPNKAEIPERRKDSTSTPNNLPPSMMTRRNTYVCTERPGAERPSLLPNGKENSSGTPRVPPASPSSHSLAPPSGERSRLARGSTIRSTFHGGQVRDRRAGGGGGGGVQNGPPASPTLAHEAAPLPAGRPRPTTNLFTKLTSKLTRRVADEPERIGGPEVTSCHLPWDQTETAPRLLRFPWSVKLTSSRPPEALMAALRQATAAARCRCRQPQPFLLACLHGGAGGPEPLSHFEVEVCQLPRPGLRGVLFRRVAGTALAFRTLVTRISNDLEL
Sequence of LATS2 (Q9NRM7 whole entry): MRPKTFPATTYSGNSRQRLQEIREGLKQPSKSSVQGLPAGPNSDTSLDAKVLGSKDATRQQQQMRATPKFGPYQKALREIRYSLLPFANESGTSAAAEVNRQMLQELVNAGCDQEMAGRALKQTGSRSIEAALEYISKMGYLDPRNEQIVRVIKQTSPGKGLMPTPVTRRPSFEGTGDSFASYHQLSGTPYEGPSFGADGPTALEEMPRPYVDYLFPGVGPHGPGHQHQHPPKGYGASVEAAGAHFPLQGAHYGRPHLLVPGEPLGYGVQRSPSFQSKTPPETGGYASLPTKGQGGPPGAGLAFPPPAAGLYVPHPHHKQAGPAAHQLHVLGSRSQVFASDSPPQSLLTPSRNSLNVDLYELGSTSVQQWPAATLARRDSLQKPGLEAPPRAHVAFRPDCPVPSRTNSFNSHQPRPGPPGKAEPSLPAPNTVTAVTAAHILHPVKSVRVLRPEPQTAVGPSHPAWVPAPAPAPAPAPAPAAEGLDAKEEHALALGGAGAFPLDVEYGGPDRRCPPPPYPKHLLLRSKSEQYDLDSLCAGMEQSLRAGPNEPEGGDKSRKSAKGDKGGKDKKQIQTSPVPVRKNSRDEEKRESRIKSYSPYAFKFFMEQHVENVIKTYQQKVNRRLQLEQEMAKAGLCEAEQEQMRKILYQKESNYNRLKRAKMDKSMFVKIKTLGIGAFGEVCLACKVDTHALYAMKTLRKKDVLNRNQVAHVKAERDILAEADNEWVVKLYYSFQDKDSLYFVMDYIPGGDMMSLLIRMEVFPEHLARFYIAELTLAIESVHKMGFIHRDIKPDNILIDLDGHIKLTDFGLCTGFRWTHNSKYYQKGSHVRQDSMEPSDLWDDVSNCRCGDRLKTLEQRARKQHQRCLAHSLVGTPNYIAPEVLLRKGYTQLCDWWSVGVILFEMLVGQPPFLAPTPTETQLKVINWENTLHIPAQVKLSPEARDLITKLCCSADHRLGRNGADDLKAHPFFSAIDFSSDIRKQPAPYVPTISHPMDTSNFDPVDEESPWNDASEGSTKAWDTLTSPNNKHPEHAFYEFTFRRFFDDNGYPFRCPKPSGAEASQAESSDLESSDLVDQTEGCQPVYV
Sequence of AKT2 (P31751 whole entry): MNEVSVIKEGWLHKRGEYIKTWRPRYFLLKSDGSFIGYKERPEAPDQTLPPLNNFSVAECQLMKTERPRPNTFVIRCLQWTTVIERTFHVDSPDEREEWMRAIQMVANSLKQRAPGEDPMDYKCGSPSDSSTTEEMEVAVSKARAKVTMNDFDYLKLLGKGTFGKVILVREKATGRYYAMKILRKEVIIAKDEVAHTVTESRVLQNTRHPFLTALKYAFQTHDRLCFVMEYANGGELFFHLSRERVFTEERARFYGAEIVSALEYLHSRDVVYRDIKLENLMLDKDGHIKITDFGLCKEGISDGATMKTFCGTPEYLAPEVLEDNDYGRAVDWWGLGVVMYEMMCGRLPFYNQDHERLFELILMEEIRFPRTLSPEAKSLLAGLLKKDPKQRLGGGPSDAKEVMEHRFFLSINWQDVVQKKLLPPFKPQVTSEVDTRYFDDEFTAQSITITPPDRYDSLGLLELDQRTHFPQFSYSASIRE
Sequence of GRK7 (Q8WTQ7 whole entry): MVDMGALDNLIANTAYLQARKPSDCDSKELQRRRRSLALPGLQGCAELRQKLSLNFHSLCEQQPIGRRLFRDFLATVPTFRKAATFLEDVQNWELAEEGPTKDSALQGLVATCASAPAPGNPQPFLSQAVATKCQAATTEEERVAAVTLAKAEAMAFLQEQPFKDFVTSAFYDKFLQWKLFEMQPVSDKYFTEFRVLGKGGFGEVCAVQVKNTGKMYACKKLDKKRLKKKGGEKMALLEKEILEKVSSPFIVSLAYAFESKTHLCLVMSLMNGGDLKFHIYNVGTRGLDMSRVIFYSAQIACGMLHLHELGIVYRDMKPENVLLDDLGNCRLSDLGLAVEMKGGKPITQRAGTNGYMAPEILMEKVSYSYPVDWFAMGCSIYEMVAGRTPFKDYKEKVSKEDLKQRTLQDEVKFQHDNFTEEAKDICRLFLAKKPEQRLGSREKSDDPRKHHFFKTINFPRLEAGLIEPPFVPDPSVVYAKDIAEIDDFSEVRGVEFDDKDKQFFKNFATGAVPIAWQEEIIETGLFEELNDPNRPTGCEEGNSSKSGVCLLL
Sequence of CDK5 (Q00535 whole entry): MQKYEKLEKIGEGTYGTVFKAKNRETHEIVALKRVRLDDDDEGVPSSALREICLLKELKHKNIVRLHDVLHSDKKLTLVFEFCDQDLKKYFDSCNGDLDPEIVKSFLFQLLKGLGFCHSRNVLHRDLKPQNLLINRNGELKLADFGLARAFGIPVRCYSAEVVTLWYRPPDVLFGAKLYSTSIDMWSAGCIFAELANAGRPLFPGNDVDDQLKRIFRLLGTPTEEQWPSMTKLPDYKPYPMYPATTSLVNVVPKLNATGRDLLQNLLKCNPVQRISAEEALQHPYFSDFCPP
Sequence of TTK (P33981 whole entry): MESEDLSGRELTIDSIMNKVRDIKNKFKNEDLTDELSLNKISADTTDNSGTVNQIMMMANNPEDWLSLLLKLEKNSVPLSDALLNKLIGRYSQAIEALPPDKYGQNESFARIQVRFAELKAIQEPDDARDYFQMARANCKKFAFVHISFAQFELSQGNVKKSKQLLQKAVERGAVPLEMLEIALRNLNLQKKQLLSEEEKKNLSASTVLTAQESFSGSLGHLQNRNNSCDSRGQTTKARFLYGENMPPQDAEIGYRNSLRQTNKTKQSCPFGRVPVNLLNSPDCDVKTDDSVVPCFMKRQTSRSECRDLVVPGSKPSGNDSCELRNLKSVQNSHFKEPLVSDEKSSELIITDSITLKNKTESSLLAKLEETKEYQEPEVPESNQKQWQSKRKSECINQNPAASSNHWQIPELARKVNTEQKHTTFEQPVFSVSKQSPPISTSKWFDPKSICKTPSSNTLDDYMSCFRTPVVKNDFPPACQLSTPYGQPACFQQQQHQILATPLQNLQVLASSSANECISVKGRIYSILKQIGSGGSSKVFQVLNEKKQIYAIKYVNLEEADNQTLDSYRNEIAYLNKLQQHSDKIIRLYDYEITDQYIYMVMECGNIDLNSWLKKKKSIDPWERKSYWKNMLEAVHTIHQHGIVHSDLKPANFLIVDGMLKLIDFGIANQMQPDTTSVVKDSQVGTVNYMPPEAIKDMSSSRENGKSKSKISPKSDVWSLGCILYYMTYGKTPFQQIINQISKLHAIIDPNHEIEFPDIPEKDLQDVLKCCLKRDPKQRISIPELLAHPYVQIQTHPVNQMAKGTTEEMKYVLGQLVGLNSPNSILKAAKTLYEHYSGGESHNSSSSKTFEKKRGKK

O=C(/C=C/c1cnccc1-c1ccc(F)cc1)Nc1ccc(CCc2nnco2)cc1 [T-418, (2E)-3-(4-(4-fluorophenyl)pyridin-3-yl)-N-(4-(2-(1,3,4-oxadiazol-2-yl)ethyl)phenyl)acrylamide]
remaining binding at 0.3 µM ([1]; sheet T-418): 100%
remaining binding at 0.3 µM ([2]; sheet T-418): 90%
remaining binding at 0.3 µM ([3]; sheet T-418): 80%
remaining binding at 0.3 µM ([4]; sheet T-418): 100%
remaining binding at 0.3 µM ([5]; sheet T-418): 98%
remaining binding at 0.3 µM ([6]; sheet T-418): 100%
remaining binding at 0.3 µM ([7]; sheet T-418): 95%
remaining binding at 0.3 µM ([8]; sheet T-418): 100%
remaining binding at 0.3 µM ([9]; sheet T-418): 98%
remaining binding at 0.3 µM ([10]; sheet T-418): 85%
remaining binding at 0.3 µM ([11]; sheet T-418): 91%
remaining binding at 0.3 µM ([12]; sheet T-418): 100%
remaining binding at 0.3 µM ([13]; sheet T-418): 78%
remaining binding at 0.3 µM ([14]; sheet T-418): 100%
remaining binding at 0.3 µM ([15]; sheet T-418): 100%
remaining binding at 0.3 µM ([16]; sheet T-418): 80%
remaining binding at 0.3 µM ([17]; sheet T-418): 82%
remaining binding at 0.3 µM ([18]; sheet T-418): 96%
remaining binding at 0.3 µM ([19]; sheet T-418): 100%
remaining binding at 0.3 µM ([20]; sheet T-418): 97%
remaining binding at 0.3 µM ([21]; sheet T-418): 100%
remaining binding at 0.3 µM ([22]; sheet T-418): 100%

Cc1ncccc1Oc1sc(C(N)=O)c2c1-c1c(cnn1C)CC2 [T-474, 1-methyl-8-((2-methylpyridin-3-yl)oxy)-4,5-dihydro-1H-thieno[3,4-g]indazole-6-carboxamide]
remaining binding at 0.3 µM [1]: 100%
remaining binding at 0.3 µM [2]: 97%
remaining binding at 0.3 µM [3]: 100%
remaining binding at 0.3 µM [4]: 96%
remaining binding at 0.3 µM [5]: 100%
remaining binding at 0.3 µM [6]: 100%
remaining binding at 0.3 µM [7]: 93%
remaining binding at 0.3 µM [8]: 100%
remaining binding at 0.3 µM [9]: 83%
remaining binding at 0.3 µM [10]: 70%
remaining binding at 0.3 µM [11]: 98%
remaining binding at 0.3 µM [12]: 100%
remaining binding at 0.3 µM [13]: 69%
remaining binding at 0.3 µM [14]: 100%
remaining binding at 0.3 µM [15]: 83%
remaining binding at 0.3 µM [16]: 94%
remaining binding at 0.3 µM [17]: 100%
remaining binding at 0.3 µM [18]: 100%
remaining binding at 0.3 µM [19]: 100%
remaining binding at 0.3 µM [20]: 100%
remaining binding at 0.3 µM [21]: 100%
remaining binding at 0.3 µM [22]: 100%
